The values that follow come from ChEMBL document CHEMBL1201862, “PubChem BioAssay data set” (2004).

Among the test systems are 786-0; SN12C; Malme-3M; HT-29; M14; SF-268; SK-MEL-28; NCI-H23; UO-31; RPMI-8226; OVCAR-5; HOP-62; SF-539; PC-3; K562; CCRF-CEM; ACHN; SF-295; IGROV-1.
What all share (assay): NCI anticancer screen, dose series, 48 h

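Grown in 96-well plates, cells were treated for 48 hours with each compound at five concentrations. Insufficient inhibition: endpoint recorded as highest concentration tested. At the GI50, growth is halved.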 Activity calls are given as the source filed them. No stated cut-off is given here; in the data, active = GI50 up to about 1.1 µM and inactive = higher. A value given as a limit tells only on which side of the number the result lay.

For the compound `CC(=O)OCC1OC(OCCCOP(=S)(OCCC#N)OCC2OC(n3ccc(N)nc3=O)C(OC(=O)c3ccccc3)C2OC(=O)c2ccccc2)C(OC(C)=O)C(OC(C)=O)C1OC(C)=O` (stereo not given), the GI50 in the assay with 786-0, in the assay on SN12C, in the assay with Malme-3M, in the assay with HT-29, with M14 and in the assay on SF-268 was > 100 µM (inactive) each time. The GI50 was > 100 µM (inactive) with SK-MEL-28; > 100 µM (inactive) in the assay on NCI-H23; > 100 µM (inactive) in the assay with UO-31; > 100 µM (inactive) in the assay with RPMI-8226; > 100 µM (inactive) in the assay with OVCAR-5; 43.5 µM (inactive) in the assay with HOP-62. Further, the GI50 in the assay with SF-539, in the assay on PC-3, in the assay on K562, in the assay on CCRF-CEM, in the assay on ACHN and with SF-295 was > 100 µM (inactive) in each case. Moreover, the GI50 in the assay with IGROV-1 is > 100 µM (inactive).
Take `CCOC1OCCCC1Br` (stereo not given): the GI50 with 786-0, with SN12C, with Malme-3M, in the assay on HT-29, with M14 and with SF-268 was > 100 µM (inactive) throughout. For the same compound, the GI50 with SK-MEL-28, in the assay on NCI-H23, in the assay on UO-31, in the assay with RPMI-8226, in the assay with OVCAR-5 and in the assay on HOP-62 was > 100 µM (inactive) in each case. Also, the GI50 in the assay on SF-539, in the assay on PC-3, in the assay with K562, with CCRF-CEM, in the assay on ACHN and in the assay on SF-295 was > 100 µM (inactive) in each case. Besides, in the assay on IGROV-1, the GI50 was > 100 µM (inactive).
Consider `CN(C)c1ccc(C2CC(C)(O)Oc3cc4c(cc32)OCO4)cc1` (stereo not given), for which the GI50 with 786-0 was 43.7 µM (inactive); with SN12C, 25.4 µM (inactive); with Malme-3M it was 67 µM (inactive); in the assay with HT-29, 26.9 µM (inactive); in the assay on M14, 39.1 µM (inactive); in the assay on SF-268, 46.7 µM (inactive). Moreover, the GI50 is 36.9 µM (inactive) with SK-MEL-28; 71.8 µM (inactive) in the assay on NCI-H23; 30.7 µM (inactive) in the assay with UO-31; 19.7 µM (inactive) with RPMI-8226; 75.9 µM (inactive) in the assay on OVCAR-5; 62.4 µM (inactive) in the assay with HOP-62. The GI50 was 34.1 µM (inactive) in the assay with SF-539; 39.4 µM (inactive) in the assay on PC-3; 48 µM (inactive) in the assay with K562; 33.6 µM (inactive) in the assay on CCRF-CEM; 70.6 µM (inactive) in the assay with ACHN; 29.1 µM (inactive) in the assay on SF-295. Further, the GI50 in the assay with IGROV-1 is 1.73 µM (inactive).
As to `Cc1ncc([N+](=O)[O-])n1CCN(C)C(=O)CCCn1ccnc1[N+](=O)[O-]`, the GI50 in the assay on 786-0, in the assay on SN12C, in the assay on Malme-3M, with HT-29, in the assay on M14 and in the assay with SF-268 was > 100 µM (inactive) in each case. The GI50 in the assay with SK-MEL-28, with NCI-H23, in the assay with UO-31, in the assay with RPMI-8226, in the assay on OVCAR-5 and with HOP-62 was > 100 µM (inactive) throughout. The GI50 in the assay with SF-539, in the assay on PC-3, in the assay with K562, in the assay on CCRF-CEM, with ACHN and in the assay on SF-295 was > 100 µM (inactive) throughout. The GI50 with IGROV-1 was > 100 µM (inactive).
As for `NCCOc1ccccn1`, the GI50 in the assay on 786-0, in the assay on SN12C, with Malme-3M, in the assay with HT-29, with M14 and with SF-268 was > 100 µM (inactive) each time. The GI50 in the assay on SK-MEL-28, with NCI-H23, in the assay on UO-31, in the assay on RPMI-8226, in the assay with OVCAR-5 and with HOP-62 was > 100 µM (inactive) throughout. Also, the GI50 in the assay on SF-539, in the assay with PC-3, in the assay on K562, in the assay on CCRF-CEM, with ACHN and in the assay with SF-295 was > 100 µM (inactive) throughout. Also, in the assay on IGROV-1, the GI50 is > 100 µM (inactive).
Take `Cc1cc2ncn(C3CCCCO3)c2cc1C` (stereo not given): the GI50 in the assay with 786-0, with SN12C, with Malme-3M, in the assay on HT-29, in the assay on M14 and in the assay with SF-268 was > 100 µM (inactive) each time. Also, the GI50 is > 100 µM (inactive) with SK-MEL-28; 50.2 µM (inactive) in the assay with NCI-H23; 20.2 µM (inactive) in the assay with UO-31; > 100 µM (inactive) in the assay with RPMI-8226; > 100 µM (inactive) in the assay with OVCAR-5; > 100 µM (inactive) with HOP-62. Also, the GI50 with SF-539, in the assay on PC-3, in the assay on K562, with CCRF-CEM, in the assay with ACHN and with SF-295 was > 100 µM (inactive) throughout. Also, the GI50 in the assay on IGROV-1 was > 100 µM (inactive).
For the compound `CCN(CC)CC1CCCCN1CC(=O)N1c2ccc(Br)cc2C(=O)Nc2cccnc21` (stereo not given), the GI50 with 786-0, in the assay on SN12C, in the assay with Malme-3M, with HT-29, in the assay on M14 and with SF-268 was > 100 µM (inactive) in each case. In addition, the GI50 in the assay on SK-MEL-28 was > 100 µM (inactive); in the assay with NCI-H23 it was > 100 µM (inactive); in the assay on UO-31 it was 27.2 µM (inactive); with RPMI-8226, > 100 µM (inactive); with OVCAR-5, > 100 µM (inactive); in the assay with HOP-62 it was > 100 µM (inactive). Besides, the GI50 in the assay on SF-539, with PC-3, in the assay on K562, in the assay with CCRF-CEM, in the assay with ACHN and in the assay with SF-295 was > 100 µM (inactive) in each case. Moreover, the GI50 in the assay with IGROV-1 was > 100 µM (inactive).
For the compound `Cc1c2ccnc(C(=O)NCCN(C)C)c2cc2c3cc(O)ccc3n(C)c12`, the GI50 in the assay on 786-0 is 0.0542 µM (active); with SN12C, 0.0596 µM (active); in the assay on Malme-3M, 0.295 µM (active); with HT-29, 0.479 µM (active); with M14 it was 0.215 µM (active); in the assay on SF-268, 0.0676 µM (active). The GI50 in the assay on SK-MEL-28 is 0.328 µM (active); in the assay with NCI-H23 it was 0.125 µM (active); with UO-31, 0.267 µM (active); in the assay on RPMI-8226, 0.0927 µM (active); in the assay on OVCAR-5 it was 0.76 µM (active); with HOP-62 it was 0.0368 µM (active). Moreover, the GI50 in the assay on SF-539 is 0.0603 µM (active); in the assay on PC-3, 0.115 µM (active); in the assay on K562, 0.123 µM (active); in the assay on CCRF-CEM, < 0.0145 µM (active); in the assay on ACHN it was 0.0188 µM (active); in the assay on SF-295 it was 0.0671 µM (active). Further, the GI50 in the assay with IGROV-1 was 0.277 µM (active).
For `CC(C)(C)C(=O)OCOP(=O)(OCOC(=O)C(C)(C)C)OCC1OC(n2ccc(=O)[nH]c2=O)C(N=[N+]=[N-])C1O` (stereo not given), the GI50 with 786-0 is 2.46 µM (inactive); in the assay with SN12C it was 10.3 µM (inactive); in the assay on Malme-3M, 0.261 µM (active); with HT-29, 3.44 µM (inactive); in the assay with M14, 3 µM (inactive); with SF-268 it was 0.757 µM (active). The GI50 in the assay with SK-MEL-28 was 11.6 µM (inactive); with NCI-H23, 4.45 µM (inactive); in the assay with UO-31, 1.62 µM (inactive); with RPMI-8226, 1.62 µM (inactive); in the assay on OVCAR-5, 5.28 µM (inactive); in the assay on HOP-62, 2.37 µM (inactive). Moreover, the GI50 in the assay with SF-539 was 2.43 µM (inactive); in the assay on PC-3 it was 3.81 µM (inactive); with K562 it was 19.1 µM (inactive); in the assay on CCRF-CEM, 2.53 µM (inactive); in the assay with ACHN it was 4.2 µM (inactive); with SF-295, 12.7 µM (inactive). The GI50 with IGROV-1 is 4.23 µM (inactive).
Turning to `c1ccc([P+](Cc2ccc(C[P+](c3ccccc3)(c3ccccc3)c3ccccc3)s2)(c2ccccc2)c2ccccc2)cc1`, the GI50 in the assay on 786-0, with SN12C, in the assay on Malme-3M, in the assay with HT-29, in the assay with M14 and in the assay on SF-268 was > 100 µM (inactive) throughout. Further, the GI50 in the assay on SK-MEL-28, in the assay with NCI-H23, in the assay on UO-31, in the assay on RPMI-8226, in the assay with OVCAR-5 and in the assay with HOP-62 was > 100 µM (inactive) each time. Further, the GI50 with SF-539, in the assay with PC-3, in the assay on K562, with CCRF-CEM, in the assay with ACHN and with SF-295 was > 100 µM (inactive) throughout. The GI50 in the assay with IGROV-1 is > 100 µM (inactive).
